From US20240116985A1, “STAPLED PEPTIDES AND METHODS THEREOF” (priority 2020, published 2024)

Key:
[1] = molecular target: T1, full-length beta-Catenin (Uniprot ID P35222) (Homo sapiens, UniProt P35222); assay: Fluorescence polarization IC50 (beta-catenin / 5FAM-TCF4 10-53 competition); type: binding; conditions: fluorescence polarization; read-out: beta-Catenin FP IC50
T1 construct: 10 nM full-length beta-Catenin (Uniprot ID P35222)
T1 sequence (P35222 1-781): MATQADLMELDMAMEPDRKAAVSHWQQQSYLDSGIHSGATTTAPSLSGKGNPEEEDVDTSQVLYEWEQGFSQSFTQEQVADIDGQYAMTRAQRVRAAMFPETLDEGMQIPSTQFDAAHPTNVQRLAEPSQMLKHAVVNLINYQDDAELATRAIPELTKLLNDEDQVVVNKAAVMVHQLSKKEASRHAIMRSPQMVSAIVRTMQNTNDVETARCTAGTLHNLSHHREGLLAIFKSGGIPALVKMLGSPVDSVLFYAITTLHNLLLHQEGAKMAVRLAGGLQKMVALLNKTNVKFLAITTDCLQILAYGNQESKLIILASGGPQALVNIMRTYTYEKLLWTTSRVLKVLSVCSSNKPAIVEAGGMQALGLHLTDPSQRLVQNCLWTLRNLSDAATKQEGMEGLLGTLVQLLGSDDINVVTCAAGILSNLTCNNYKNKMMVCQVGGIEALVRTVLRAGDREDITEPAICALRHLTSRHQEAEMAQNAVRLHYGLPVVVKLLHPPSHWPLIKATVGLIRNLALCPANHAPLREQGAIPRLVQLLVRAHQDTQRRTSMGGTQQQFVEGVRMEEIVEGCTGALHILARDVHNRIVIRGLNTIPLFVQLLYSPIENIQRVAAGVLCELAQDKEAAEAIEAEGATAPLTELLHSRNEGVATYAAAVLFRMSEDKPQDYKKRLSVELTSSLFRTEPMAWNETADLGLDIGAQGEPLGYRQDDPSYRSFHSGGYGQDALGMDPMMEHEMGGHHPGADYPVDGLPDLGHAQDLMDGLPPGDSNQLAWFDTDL

[2] = molecular target: T2, beta-catenin/TCF4 engagement (Homo sapiens, UniProt P35222); assay: Nano-BRET target engagement assay (B-cat-Halo & TCF4-Luc in HEK293 cells); type: cell-based; conditions: absolute IC50; read-out: NanoBRET Abs IC50
T2 construct: expressed in transfected cells; host or cells: HEK293
T2 sequence (P35222 1-781): T1 sequence (P35222 1-781)

SMILES	IC50 [1] [µM]	IC50 [2] [µM]
CC(=O)N1CCC[C@]12CCCCCCC1(CCCCCCCOC(=O)N3CC[C@@](C(=O)N[C@@H](Cc4ccsc4)C(=O)N[C@@H](Cc4csc5ccccc45)C(=O)N[C@@H](CCC(N)=O)C(N)=O)(C3)NC(=O)[C@H](CC(N)=O)NC(=O)[C@H](Cc3ccccc3)NC(=O)[C@H](C)NC(=O)[C@H](C)NC(=O)[C@H](CC(=O)O)NC(=O)[C@H](CC(=O)O)NC1=O)NC(=O)[C@H](CC(C)(C)C)NC(=O)[C@H](CC(=O)O)NC2=O (stereo partly drawn) [I-1821, Ac-PL3-Asp-Npg-B5-Asp-Asp-Ala-Ala-Phe-Asn-PyrS1-3Thi-BztA-Gln-NH2]	0.067	> 20
CC(=O)N1CCC[C@]12CCCCCCC1(CCCCCCCOC(=O)N3CC[C@@](C(=O)N[C@@H](Cc4ccsc4)C(=O)N[C@@H](Cc4csc5ccccc45)C(=O)N[C@@H](CCC(N)=O)C(N)=O)(C3)NC(=O)[C@H](CC(C)C)NC(=O)[C@H](Cc3ccccc3)NC(=O)[C@H](C)NC(=O)[C@H](C)NC(=O)[C@H](CC(=O)O)NC(=O)[C@H](CC(=O)O)NC1=O)NC(=O)[C@H](CC(C)(C)C)NC(=O)[C@H](CC(=O)O)NC2=O (stereo partly drawn) [I-1822, Ac-PL3-Asp-Npg-B5-Asp-Asp-Ala-Ala-Phe-Leu-PyrS1-3Thi-BztA-Gln-NH2]	0.06	> 20
CC(=O)N1CCC[C@]12CCCCCCC1(CCCCCCOC(=O)N3CC[C@@](C(=O)N[C@@H](Cc4ccsc4)C(=O)N[C@@H](Cc4csc5ccccc45)C(=O)N[C@@H](CCC(N)=O)C(N)=O)(C3)NC(=O)[C@H](CC(N)=O)NC(=O)[C@H](Cc3ccccc3)NC(=O)[C@H](C)NC(=O)[C@H](C)NC(=O)[C@H](CC(=O)O)NC(=O)[C@H](CC(=O)O)NC1=O)NC(=O)[C@H](CC(C)(C)C)NC(=O)[C@H](CC(=O)O)NC2=O (stereo partly drawn) [I-1823, Ac-PL3-Asp-Npg-B5-Asp-Asp-Ala-Ala-Phe-Asn-PyrS-3Thi-BztA-Gln-NH2]	0.041	> 20
CC(=O)N1CCC[C@]12CCCCCCC1(CCCCCCOC(=O)N3CC[C@@](C(=O)N[C@@H](Cc4ccsc4)C(=O)N[C@@H](Cc4csc5ccccc45)C(=O)N[C@@H](CCC(N)=O)C(N)=O)(C3)NC(=O)[C@H](CC(C)C)NC(=O)[C@H](Cc3ccccc3)NC(=O)[C@H](C)NC(=O)[C@H](C)NC(=O)[C@H](CC(=O)O)NC(=O)[C@H](CC(=O)O)NC1=O)NC(=O)[C@H](CC(C)(C)C)NC(=O)[C@H](CC(=O)O)NC2=O (stereo partly drawn) [I-1824, Ac-PL3-Asp-Npg-B5-Asp-Asp-Ala-Ala-Phe-Leu-PyrS-3Thi-BztA-Gln-NH2]	0.101	> 20
CC(=O)N1CCC[C@]12CC=CCCCC1(CCCC=CCOC(=O)N3CC(C(=O)N[C@@H](Cc4ccsc4)C(=O)N[C@@H](Cc4csc5ccccc45)C(=O)N[C@@H](CCC(N)=O)C(N)=O)(C3)NC(=O)[C@H](CC(C)C)NC(=O)[C@H](Cc3ccccc3)NC(=O)[C@H](C)NC(=O)[C@H](C)NC(=O)[C@H](CC(=O)O)NC(=O)[C@H](CC(=O)O)NC1=O)NC(=O)[C@H](CC(C)(C)C)NC(=O)[C@H](CC(=O)O)NC2=O (stereo partly drawn) [I-1828, Ac-PL3-Asp-Npg-B5-Asp-Asp-Ala-Ala-Phe-Leu-Az-3Thi-BztA-Gln-NH2]	0.264	> 20
CC(=O)N1CCC[C@]12CC=CCCCC1(CCCC=CCCCOC(=O)N3CC[C@@](C(=O)N[C@@H](Cc4ccccc4Cl)C(=O)N[C@@H](Cc4csc5ccccc45)C(=O)N[C@@H](CCC(N)=O)C(N)=O)(C3)NC(=O)[C@H](CC(C)C)NC(=O)[C@H](Cc3ccccc3)NC(=O)[C@H](C)NC(=O)[C@H](C)NC(=O)[C@H](CN(CC(=O)O)CC(F)(F)F)NC(=O)[C@H](CC(=O)O)NC1=O)NC(=O)[C@H](CC(C)(C)C)NC(=O)[C@H](CC(=O)O)NC2=O (stereo partly drawn) [I-1833, Ac-PL3-Asp-Npg-B5-Asp-TfeGA-Ala-Ala-Phe-Leu-PyrS2-2C1F-BztA-Gln-NH2]	0.026	6.9
CC(=O)N1CCC[C@]12CC=CCCCC1(CCCC=CCCCOC(=O)N3CC[C@@](C(=O)N[C@@H](Cc4ccsc4)C(=O)N[C@@H](Cc4csc5ccccc45)C(=O)N[C@@H](CCC(N)=O)C(N)=O)(C3)NC(=O)[C@H](CC(C)C)NC(=O)[C@H](Cc3ccccc3)NC(=O)[C@H](C)NC(=O)[C@H](C)NC(=O)[C@H](CCN(CC(=O)O)Cc3ccccc3)NC(=O)[C@H](CC(=O)O)NC1=O)NC(=O)[C@H](CC(C)(C)C)NC(=O)[C@H](CC(=O)O)NC2=O (stereo partly drawn) [I-1834, Ac-PL3-Asp-Npg-B5-Asp-[Bn]GAbu-Ala-Ala-Phe-Leu-PyrS2-3Thi-BztA-Gln-NH2]	0.035	18.8
CCN(CC[C@@H]1NC(=O)[C@H](CC(=O)O)NC(=O)C2(CCCC=CCCCOC(=O)N3CC[C@@](C(=O)N[C@@H](Cc4ccsc4)C(=O)N[C@@H](Cc4csc5ccccc45)C(=O)N[C@@H](CCC(N)=O)C(N)=O)(C3)NC(=O)[C@H](CC(C)C)NC(=O)[C@H](Cc3ccccc3)NC(=O)[C@H](C)NC(=O)[C@H](C)NC1=O)CCCC=CC[C@]1(CCCN1C(C)=O)C(=O)N[C@@H](CC(=O)O)C(=O)N[C@@H](CC(C)(C)C)C(=O)N2)CC(=O)O (stereo partly drawn) [I-1835, Ac-PL3-Asp-Npg-B5-Asp-[Et]GAbu-Ala-Ala-Phe-Leu-PyrS2-3Thi-BztA-Gln-NH2]	0.034	31.9
CC(=O)N1CCC[C@]12CC=CCCCC1(CCCC=CCCCOC(=O)N3CC[C@@](C(=O)N[C@@H](Cc4ccsc4)C(=O)N[C@@H](Cc4csc5ccccc45)C(=O)N[C@@H](CCC(N)=O)C(N)=O)(C3)NC(=O)[C@H](CC(C)C)NC(=O)[C@H](Cc3ccccc3)NC(=O)[C@H](C)NC(=O)[C@H](C)NC(=O)[C@H](CCN(CCCC(F)(F)F)CC(=O)O)NC(=O)[C@H](CC(=O)O)NC1=O)NC(=O)[C@H](CC(C)(C)C)NC(=O)[C@H](CC(=O)O)NC2=O (stereo partly drawn) [I-1837, Ac-PL3-Asp-Npg-B5-Asp-[Tfb]GAbu-Ala-Ala-Phe-Leu-PyrS2-3Thi-BztA-Gln-NH2]	0.019	18.5
CC(=O)N1CCC[C@]12CC=CCCCC1(CCCC=CCCCOC(=O)N3CC[C@@](C(=O)N[C@@H](Cc4ccsc4)C(=O)N[C@@H](Cc4csc5ccccc45)C(=O)N[C@@H](CCC(N)=O)C(N)=O)(C3)NC(=O)[C@H](CC(C)C)NC(=O)[C@H](Cc3ccccc3)NC(=O)[C@H](C)NC(=O)[C@H](C)NC(=O)[C@H](CCN(CC(=O)O)Cc3c(F)c(F)c(F)c(F)c3F)NC(=O)[C@H](CC(=O)O)NC1=O)NC(=O)[C@H](CC(C)(C)C)NC(=O)[C@H](CC(=O)O)NC2=O (stereo partly drawn) [I-1838, Ac-PL3-Asp-Npg-B5-Asp-[Pfbn]GAbu-Ala-Ala-Phe-Leu-PyrS2-3Thi-BztA-Gln-NH2]	0.085	7.9
CC(=O)N1CCC[C@]12CC=CCCCC1(CCCC=CCCCOC(=O)N3CC[C@@](C(=O)N[C@@H](Cc4ccsc4)C(=O)N[C@@H](Cc4csc5ccccc45)C(=O)N[C@@H](CCC(N)=O)C(N)=O)(C3)NC(=O)[C@H](CC(C)C)NC(=O)[C@H](Cc3ccccc3)NC(=O)[C@H](C)NC(=O)[C@H](C)NC(=O)[C@H](CCN(CCC(F)(F)F)CC(=O)O)NC(=O)[C@H](CC(=O)O)NC1=O)NC(=O)[C@H](CC(C)(C)C)NC(=O)[C@H](CC(=O)O)NC2=O (stereo partly drawn) [I-1839, Ac-PL3-Asp-Npg-B5-Asp-[Tfp]GAbu-Ala-Ala-Phe-Leu-PyrS2-3Thi-BztA-Gln-NH2]	0.021	14.6
CC(=O)N(CC[C@@H]1NC(=O)[C@H](CC(=O)O)NC(=O)C2(CCCC=CCCCOC(=O)N3CC[C@@](C(=O)N[C@@H](Cc4ccsc4)C(=O)N[C@@H](Cc4csc5ccccc45)C(=O)N[C@@H](CCC(N)=O)C(N)=O)(C3)NC(=O)[C@H](CC(C)C)NC(=O)[C@H](Cc3ccccc3)NC(=O)[C@H](C)NC(=O)[C@H](C)NC1=O)CCCC=CC[C@]1(CCCN1C(C)=O)C(=O)N[C@@H](CC(=O)O)C(=O)N[C@@H](CC(C)(C)C)C(=O)N2)CC(=O)O (stereo partly drawn) [I-1840, Ac-PL3-Asp-Npg-B5-Asp-[Ac]GAbu-Ala-Ala-Phe-Leu-PyrS2-3Thi-BztA-Gln-NH2]	0.014	22.3
CC(=O)N1CCC[C@]12CC=CCCCC1(CCCC=CCCCOC(=O)N3CC[C@@](C(=O)N[C@@H](Cc4ccsc4)C(=O)N[C@@H](Cc4csc5ccccc45)C(=O)N[C@@H](CCC(N)=O)C(N)=O)(C3)NC(=O)[C@H](CC(C)C)NC(=O)[C@H](Cc3ccccc3)NC(=O)[C@H](C)NC(=O)[C@H](C)NC(=O)[C@H](CCNCC(=O)O)NC(=O)[C@H](CC(=O)O)NC1=O)NC(=O)[C@H](CC(C)(C)C)NC(=O)[C@H](CC(=O)O)NC2=O (stereo partly drawn) [I-1841, Ac-PL3-Asp-Npg-B5-Asp-GAbu-Ala-Ala-Phe-Leu-PyrS2-3Thi-BztA-Gln-NH2]	0.076	> 20
CC(=O)N1CCC[C@]12CC=CCCCC1(CCCC=CCCCOC(=O)N3CC[C@@](C(=O)N[C@@H](Cc4ccsc4)C(=O)N[C@@H](Cc4csc5ccccc45)C(=O)N[C@@H](CCC(N)=O)C(N)=O)(C3)NC(=O)[C@H](CC(C)C)NC(=O)[C@H](Cc3ccccc3)NC(=O)[C@H](C)NC(=O)[C@H](C)NC(=O)[C@H](CNc3ccc([N+](=O)[O-])cc3C(=O)O)NC(=O)[C@H](CC(=O)O)NC1=O)NC(=O)[C@H](CC(C)(C)C)NC(=O)[C@H](CC(=O)O)NC2=O (stereo partly drawn) [I-1843, Ac-PL3-Asp-Npg-B5-Asp-[2COOH4NO2Ph]Dap-Ala-Ala-Phe-Leu-PyrS2-3Thi-BztA-Gln-NH2]	0.032	9.5
